Experimental data taken from patent publication US8389523B2, “Substituted quinoxaline and an agrochemical composition thereof” (Kumiai Chemical Industry Co., Ltd., priority 2007, dated 2013).

Columns and labels:
Type in all cases: in vivo
Design in all cases: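 grade 0 to 5 of growth suppression where 5 is 90% or more and 0 below 10%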
[1] = system: Abutilon theophrasti medicus; experiment: Herbicidal effects in upland field soil treatment (Test Example 2); conditions: 1000 g active ingredient per hectare, 21st day after treatment, criteria of Table 138
Procedure, shortened: (§1)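 Upland soil, seeds sown and covered → diluted WP sprayed uniformly onto soil surface (1000 L/ha; 1000 g a.i./ha) → greenhouse → effect scored day 21.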

Amaranthus viridis L. [2] = experiment: as above; conditions: 1000 g active ingredient per hectare, 21st day after treatment, criteria of Table 138
Procedure, shortened: as §1

[3] = system: Echinochloa crus-galli (L.) P. Beauv. var. crus-galli; experiment: Herbicidal effects in upland field foliar treatment (Test Example 3); conditions: 1000 g of the active ingredient per hectare, 14th day after the treatment, wettable powder, criteria of Table 138
Procedure, shortened: (§2)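 Seeds sown in upland soil, grown 2 weeks in greenhouse; whole-plant overhead spray of diluted wettable powder at 1000 g a.i./ha (1000 L/ha); kept in greenhouse; effects graded by criteria at 14 d.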

[4] = system: Abutilon theophrasti medicus; experiment: as above; conditions: 1000 g of the active ingredient per hectare, 14th day after the treatment, wettable powder, criteria of Table 138
Procedure, shortened: as §2

Amaranthus viridis L. [5] = experiment: as above; conditions: 1000 g of the active ingredient per hectare, 14th day after the treatment, wettable powder, criteria of Table 138
Procedure, shortened: as §2

[6] = system: Scirpus juncoides Roxb. var. ohwianus. T. Koyama; experiment: Herbicidal effects in paddy field soil treatment (Test Example 1); conditions: paddy field soil treatment; 1000 g of the active ingredient per hectare; wettable powder added dropwise on water surface; 21st day after treatment
Procedure, shortened: (§3)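 Sow seeds in puddled, leveled paddy soil; waterlog to 3 cm depth. On the following day apply water-diluted wettable powder onto the water surface (1000 g a.i./ha). Grow in greenhouse and assess herbicidal effect at day 21.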

[7] = system: Echinochloa oryzicola Vasing; experiment: as above; conditions: paddy field soil treatment; 1000 g of the active ingredient per hectare; wettable powder added dropwise on water surface; 21st day after treatment
Procedure, shortened: as §3

[8] = system: Monochoria vaginalis (Burm. f.) Presl var. plantaginea (Roxb.) Solms-Laub.; experiment: as above; conditions: paddy field soil treatment; 1000 g of the active ingredient per hectare; wettable powder added dropwise on water surface; 21st day after treatment
Procedure, shortened: as §3

Structure (SMILES) | herbicidal effect (index) on Abutilon theophrasti medicus [1] | herbicidal effect (index) on Amaranthus viridis L. (Amaranthus viridis L. [2]) | herbicidal effects on Echinochloa crus-galli (L.) P. Beauv. var. crus-galli [3] | herbicidal effects on Abutilon theophrasti medicus [4] | herbicidal effects on Amaranthus viridis L. (Amaranthus viridis L. [5]) | Herbicidal effects index, Scirpus juncoides Roxb. var. ohwianus. T. Koyama [6] | Herbicidal effects index, Echinochloa oryzicola Vasing [7] | Herbicidal effects index, Monochoria vaginalis (Burm. f.) Presl var. plantaginea (Roxb.) Solms-Laub. [8]
O=C1CCCC(O)=C1C(=O)c1nc2ccccc2n(-c2cccc(OC(F)F)c2)c1=O [II-90] | 5 | 5 | 5 | 5 | 5 | 5 | 5 | 5
O=C1CCCC(O)=C1C(=O)c1nc2ccccc2n(-c2ccc(OC(F)F)cc2)c1=O [II-95] | 5 | 5 | 5 | 5 | 5 | 5 | 5 | 5
O=C1CCCC(O)=C1C(=O)c1nc2ccccc2n(-c2cccc(OC(F)(F)F)c2)c1=O [II-101] | 5 | 5 | 5 | 5 | 5 | 5 | 5 | 5
CSc1ccc(-n2c(=O)c(C(=O)C3=C(O)CCCC3=O)nc3ccccc32)cc1 [II-122] | 5 | 5 | 5 | 4 | 5 | 5 | 5 | 5
CS(=O)(=O)c1ccc(-n2c(=O)c(C(=O)C3=C(O)CCCC3=O)nc3ccccc32)cc1 [II-125] | 5 | 5 | 5 | 5 | 5 | 5 | 5 | 5
O=C1CCCC=C1C(=O)c1nc2ccccc2n(-c2ccccc2[N+](=O)[O-])c1=O [II-129] | 5 | 5 | 5 | 5 | 5 | 5 | 5 | 5
O=C1CCCC(O)=C1C(=O)c1nc2ccccc2n(-c2cccc([N+](=O)[O-])c2)c1=O [II-130] | 5 | 5 | 5 | 5 | 5 | 5 | 5 | 5
O=C1CCCC(O)=C1C(=O)c1nc2ccccc2n(-c2ccc([N+](=O)[O-])cc2)c1=O [II-131] | 5 | 5 | 5 | 5 | 5 | 5 | 5 | 5
N#Cc1cccc(-n2c(=O)c(C(=O)C3=C(O)CCCC3=O)nc3ccccc32)c1 [II-136] | 5 | 5 | 5 | 5 | 5 | 5 | 5 | 5
N#Cc1ccc(-n2c(=O)c(C(=O)C3=C(O)CCCC3=O)nc3ccccc32)cc1 [II-137] | 5 | 5 | 5 | 5 | 5 | 5 | 5 | 5
COCc1ccc(-n2c(=O)c(C(=O)C3=C(O)CCCC3=O)nc3ccccc32)cc1 [II-149] | 4 | 5 | 5 | 5 | 5 | 5 | 5 | 5
COc1cc(-n2c(=O)c(C(=O)C3=C(O)CCCC3=O)nc3ccccc32)ccc1Cl [II-167] | 5 | 5 | 5 | 5 | 5 | 5 | 5 | 5
COc1cc(-n2c(=O)c(C(=O)C3=C(O)CCCC3=O)nc3ccccc32)ccc1C [II-168] | 5 | 5 | 4 | 5 | 5 | 5 | 5 | 5
COc1cc(OC)cc(-n2c(=O)c(C(=O)C3=C(O)CCCC3=O)nc3ccccc32)c1 [II-173] | 4 | 5 | 4 | 5 | 5 | 5 | 5 | 5
COc1cc(-n2c(=O)c(C(=O)C3=C(O)CCCC3=O)nc3ccccc32)cc(OC)c1OC [II-185] | 5 | 5 | 4 | 5 | 5 | 5 | 4 | 5
COc1ccc(-n2c(=O)c(C(=O)C3=C(O)CCCC3=O)nc3ccc(F)cc32)cc1 [II-188] | 5 | 5 | 4 | 5 | 5 | 5 | 5 | 5
COc1ccc(-n2c(=O)c(C(=O)C3=C(O)CCCC3=O)nc3cccc(F)c32)cc1 [II-189] | 5 | 5 | 5 | 5 | 5 | 5 | 5 | 5
O=C1CCCC(O)=C1C(=O)c1nc2c(Cl)cccc2n(-c2ccccc2)c1=O [II-190] | 5 | 4 | 4 | 5 | 5 | 5 | 5 | 5
